# Laboratory results taken from US20240027453A1, “METHOD FOR DETECTION AND QUANTITATIVE MONITORING OF INFECTIONS WITH HERPESVIRUSES” (The Trustees of Princeton University, priority 2020, published 2024).
# Read-outs that look alike come from different tables or passages of the source.
# Test system: HCMV
# Type: cell-based
# Experimental: In example herpesvirus PRM assay methods shown herein, cell pellets were lysed in 2% SDS, 100 mM NaCl, 0.5 mM EDTA, 50 mM Tris, pH 8.2, and 50 μg of protein was reduced and alkylated with 25 mM TCEP and 50 mM CAM respectively for 20 min at 70° C. Proteins were then precipitated via methanol chloroform precipitation (Wessel & Flugg, Anal Biochem. 138(1):141-143, 1984), resuspended in 50 mM HEPES, pH 8.2 and digested overnight with trypsin (50:1 protein:enzyme w/w ratio). Digested peptides were desalted by SDB-RPS StageTip as previously described (Lum et al., Cell Syst., 7(6):[…], 2018; Greco et al., Methods Mol Biol 1410:39-63, 2016; Federspiel & Cristea, Methods Mol Biol., 1977:115-143, 2019).
# Peptides (1.0 μg on column) were analyzed by LC-MS/MS using a Dionex Ultimate 3000 UHPLC coupled online to an EASYSpray ion source and a Q Exactive HF. Peptides were separated on an EASYSpray C18 column (75 μm×25 cm) heated to 50° C. using a linear gradient of 5% B to 32% B over 60 min at a flow rate of 250 nL/min and were ionized at 1.7 kv. Mobile phase A consisted of 0.1% FA in H2O and mobile phase B consisted of 0.1% FA, 2.9% H2O in ACN.
# The PRM method was controlled by a peptide inclusion list with retention time windows of 6 min for selected precursor ions.
# The PRM assay was developed and analyzed using the open-source software Skyline (Maclean et al., Bioinformatics 26(7):966-968, 2010). Summed area under the curve of 3-4 transitions per peptide was used for quantitation. Targeted peptides were normalized to host protein loading control peptides. Peptide values for each sample were scaled to the average of each peptide across all runs. The average of multiple peptides was used as the inferred value for the protein measurement when more than one peptide was quantified (Federspiel et al., PLoS Biol. 17(9):e3000437. Doi: 10.1371/journal.pbio.3000437). PRM quantitation data were graphed using the Python Seaborn and Matplotlib libraries.
# MRC5 primary human fibroblasts (HFs) (ATCC CCL-171) were used as the model system for HSV-1 and HCMV infections and were cultured in complete growth medium (DMEM supplemented with 10% fetal bovine serum and 1% penicillin-streptomycin antibiotics) at 37° C. and 5% CO2. iSLK.219 cells harboring latent KSHV (a gift from Dr. Britt Glaunsinger, University of California, Berkeley) were grown in complete growth medium supplemented with 500 μg/ml hygromycin (ThermoFisher Scientific, 10687010) at 37° C. and 5% CO2. All cells were used for experiments within a maximum of 10 passages.
# Wild type HSV-1 strain 17+ (a gift from Beate Sodeik, Hannover Medical School, Hannover, Germany) was propagated as previously described (Diner et al., 2015). Briefly, PO stocks were generated by electroporating pBAC-HSV-1 into U-2 OS cells. […] In a similar manner, wild type HCMV strain AD169 was produced from BAC electroporation into HFs and working stocks were propagated by infecting HFs at a low level. In both cases, cell-associated virus was released by sonication, combined with supernatant virus, then concentrated by ultracentrifugation (20,000 rpm, 2 hours, 4° C. with SW28 swinging bucket rotor [Beckman Coulter]) over a 10% ficoll (HSV-1) or 20% sorbitol (HCMV) cushion. Virus stock titers were determined by plaque assay for HSV-1 or tissue culture infectious dose (TCID50) for HCMV and infections were performed at a multiplicity of infection (MOI) of 3.
# 12 hours prior to virus infection or reactivation, cells were treated with either the small molecule drug or DMSO/PBS control at an equivalent volume. […] For infection cycles lasting longer than 24 hours, small molecule drugs were re-added to the cell culture medium every 24 hours. Upon collection, cells were rinsed with PBS, scraped into a microcentrifuge tube, pelleted by centrifugation, and rinsed again with PBS.
compound,measurement,setting,value
Nc1c(S(=O)(=O)c2ccccc2)c2nc3ccccc3nc2n1-c1ccc(F)cc1 [CAY10602],HCMV UL122 (IE2) and UL123 (IE1) levels,,decreases
same,levels of HCMV viral immediate early proteins,,reduced
same,HCMV UL123 levels,"24 HPI, […] CAY10602, 50 μM trans-Resveratrol",unchanged
same,HCMV UL26 levels,"48 HPI, […] CAY10602, 50 μM trans-Resveratrol",decreased
same,HCMV viral protein production,by 48 HPI,global reduction
same,HCMV UL99 levels,"by 72 HPI, […] CAY10602, 50 μM trans-Resveratrol",robustly decreased
same,global decrease in HCMV viral protein levels,"by 120 HPI, […] CAY10602, 50 μM trans-Resveratrol",~70%
same,CVC2 (P16726) protein level,"timepoint 24, DE",0.01787
same,DBP (P17147) protein level,"timepoint 24, DE",0.1756
same,HELI (P16736) protein level,"timepoint 24, DE",0.3389
same,IR01 (P09710) protein level,"timepoint 24, DE",0.274
same,NEC2 (P16791) protein level,"timepoint 24, DE",0.03969
same,RIR1 (P16782) protein level,"timepoint 24, DE",0.09397
same,TRM1 (P16724) protein level,"timepoint 24, DE",0.04087
same,UL4 (P17146) protein level,"timepoint 24, DE",0.03736
same,UL26 (P16762) protein level,"timepoint 24, DE",0.07273
same,UL32 (P08318) protein level,"timepoint 24, DE",0.01952
same,UL34 (P16812) protein level,"timepoint 24, DE",0.1137
same,UL38 (P16779) protein level,"timepoint 24, DE",0.9755
same,UL44 (P16790) protein level,"timepoint 24, DE",0.06474
same,UL48 (P16785) protein level,"timepoint 24, DE",0.01175
same,UL54 (P08546) protein level,"timepoint 24, DE",0.6089
same,UL71 (P16823) protein level,"timepoint 24, DE",0.439
same,UL78 (P16751) protein level,"timepoint 24, DE",0.9755
same,UL84 (P16727) protein level,"timepoint 24, DE",0.1012
same,UL95 (P16801) protein level,"timepoint 24, DE",0.07625
same,UL96 (P16787) protein level,"timepoint 24, DE",0.387
same,UL97 (P16788) protein level,"timepoint 24, DE",0.2812
same,UL98 (P16789) protein level,"timepoint 24, DE",0.3005
same,UL102 (P16827) protein level,"timepoint 24, DE",0.5343
same,UL104 (P16735) protein level,"timepoint 24, DE",0.03903
same,UL112/UL113 (P17151) protein level,"timepoint 24, DE",0.5236
same,UL114 (P16769) protein level,"timepoint 24, DE",0.6704
same,UL119/UL118 (P16739) protein level,"timepoint 24, DE",0.2198
same,UL128 (P16837) protein level,"timepoint 24, DE",0.1113
same,US8 (P09730) protein level,"timepoint 24, DE",1.057
same,US9 (P09729) protein level,"timepoint 24, DE",0.627
same,US12 (P09721) protein level,"timepoint 24, DE",1.672
same,US13 (P09720) protein level,"timepoint 24, DE",0.6838
same,US14 (P09719) protein level,"timepoint 24, DE",0.3957
same,US18 (P69334) protein level,"timepoint 24, DE",0.5335
same,US22 (P09722) protein level,"timepoint 24, DE",0.3966
same,US23 (P09701) protein level,"timepoint 24, DE",0.6776
same,US24 (P09700) protein level,"timepoint 24, DE",0.62
same,US34 (P09709) protein level,"timepoint 24, DE",0.7981
same,gB (P06473) protein level,"timepoint 24, DE",0.1137
same,IRS1 (P09715) protein level,"timepoint 24, IE",0.3939
same,TRS1 (P09695) protein level,"timepoint 24, IE",0.2642
same,UL13 (P16755) protein level,"timepoint 24, IE",2.055
same,UL36 (P16767) protein level,"timepoint 24, IE",1.41
same,UL37 (P16778) protein level,"timepoint 24, IE",1.032
same,UL122 (P19893) protein level,"timepoint 24, IE",0.05997
same,UL123 (P13202) protein level,"timepoint 24, IE",0.9831
same,CVC1 (P16799) protein level,"timepoint 24, L",0.06119
same,IR11 (P16809) protein level,"timepoint 24, L",0.1044
same,MCP (P16729) protein level,"timepoint 24, L",0.004968
same,SCP (Q7M6N6) protein level,"timepoint 24, L",0.004248
same,TRM2 (P16792) protein level,"timepoint 24, L",0.01981
same,UL22A (P16845) protein level,"timepoint 24, L",0.04382
same,UL25 (P16761) protein level,"timepoint 24, L",0.03889
same,UL29 (P16764) protein level,"timepoint 24, L",0.8336
same,UL31 (P16848) protein level,"timepoint 24, L",0.3279
same,UL43 (P16781) protein level,"timepoint 24, L",0.06088
same,UL52 (P16793) protein level,"timepoint 24, L",0.01567
same,UL80 (P16753) protein level,"timepoint 24, L",0.0363
same,UL82 (P06726) protein level,"timepoint 24, L",0.1843
same,UL88 (P16731) protein level,"timepoint 24, L",0.03831
same,UL94 (P16800) protein level,"timepoint 24, L",0.08626
same,UL99 (P13200) protein level,"timepoint 24, L",0.0296
same,UL103 (P16734) protein level,"timepoint 24, L",0.3578
same,UL117 (P16770) protein level,"timepoint 24, L",0.4362
same,gH (P12824) protein level,"timepoint 24, L",0.04925
same,gL (P16832) protein level,"timepoint 24, L",0.03727
same,gM (P16733) protein level,"timepoint 24, L",0.03485
same,gN (P16795) protein level,"timepoint 24, L",0.1564
same,IR12 (P16810) protein level,"timepoint 24, LL",0.06811
same,TRX1 (P16783) protein level,"timepoint 24, LL",0.0077
same,TRX2 (P16728) protein level,"timepoint 24, LL",0.005245
same,UL24 (P16760) protein level,"timepoint 24, LL",0.1137
same,UL40 (P16780) protein level,"timepoint 24, LL",0.6403
same,UL47 (P16784) protein level,"timepoint 24, LL",0.008892
same,UL69 (P16749) protein level,"timepoint 24, LL",0.2203
same,UL70 (P17149) protein level,"timepoint 24, LL",0.1882
same,UL83 (P06725) protein level,"timepoint 24, LL",0.04505
same,UL132 (P69338) protein level,"timepoint 24, LL",0.1044
same,US15 (P09718) protein level,"timepoint 24, LL",1.318
same,CVC2 (P16726) protein level,"timepoint 48, DE",0.02711
same,DBP (P17147) protein level,"timepoint 48, DE",0.3215
same,HELI (P16736) protein level,"timepoint 48, DE",0.633
same,IR01 (P09710) protein level,"timepoint 48, DE",0.3157
same,NEC2 (P16791) protein level,"timepoint 48, DE",0.07071
same,RIR1 (P16782) protein level,"timepoint 48, DE",0.1157
same,TRM1 (P16724) protein level,"timepoint 48, DE",0.1031
same,UL4 (P17146) protein level,"timepoint 48, DE",0.07128
same,UL26 (P16762) protein level,"timepoint 48, DE",0.08021
same,UL32 (P08318) protein level,"timepoint 48, DE",0.02022
same,UL34 (P16812) protein level,"timepoint 48, DE",0.07906
same,UL35 (P16766) protein level,"timepoint 48, DE",0.007792
same,UL38 (P16779) protein level,"timepoint 48, DE",0.8139
same,UL44 (P16790) protein level,"timepoint 48, DE",0.08914
same,UL48 (P16785) protein level,"timepoint 48, DE",0.03443
same,UL54 (P08546) protein level,"timepoint 48, DE",0.7178
same,UL71 (P16823) protein level,"timepoint 48, DE",0.3459
same,UL78 (P16751) protein level,"timepoint 48, DE",0.7134
same,UL84 (P16727) protein level,"timepoint 48, DE",0.07575
same,UL95 (P16801) protein level,"timepoint 48, DE",0.1437
same,UL96 (P16787) protein level,"timepoint 48, DE",0.2583
same,UL97 (P16788) protein level,"timepoint 48, DE",0.1726
same,UL98 (P16789) protein level,"timepoint 48, DE",0.3796
